{"source": "patent US8808718B2", "about": "“Hypertonic organic acid or salt thereof disinfectant composition and its use in dental treatment” (Nikinc Pharma B.V., priority 2010, dated 2014)", "key": {"Enterococcus faecalis": {"tested_on": "Enterococcus faecalis", "settings": "for mean log reduction of CFU compared with the controls: E. faecalis in dual-species biofilm; for significance of reduction of E. faecalis vs negative controls (ANOVA): α=0.05", "quoted_text": "(§1) In brief, round glass cover slips attached to a custom made stainless steel lid, were suspended in medium inoculated with bacteria.\n(§2) Cells of E. faecalis V583 and P. aeruginosa, both clinical isolates, were grown and maintained as pure cultures on blood agar plates. E. faecalis was grown under anaerobic conditions (80% N2, 10% H2 and 1.0% CO2) while P. aeruginosa was grown in air, both at 37° C. Because of their shape, Gram-staining and atmospheric preferences, distinguishing between the two species with (ISM and CFU was fairly simple. Growth media for overnight cultures and biofilms were Brain Heart Infusion Broth (BHI, Oxoid, Basinstoke, UK) and BHI-broth contained 0.5 BHI, 50 mM pipes, 5% saccharose, 1 mM Ca^2+ during biofilm growth. In the experimental phase, sodium chloride (NaCl), (Merck, Darmstadt, Germany) was added to the BHI-broth to raise the osmotic value. Other medicaments used were saturated Ca(OH) in BHI-broth (slurry), 2% sodium hypochlorite (NaOCl), Merck, Darmstadt, Germany), 2% sodium thiosulphate (STS) in peptone water (1% peptone (Oxoid) in water) for neutralising the NaOCl. Phosphate buffered saline (PBS, Oxoid) was used to wash the negative controls, as a neutralising agent for NaCl, Ca(OH)2 and for serial\n(§3) Fresh cultures of each micro-organism were obtained by suspending one loopful bacteria in 5 mL BHI and grown overnight at 37° C. in air. Numbers of CFU were estimated by optical density measurement at 600 nm and relating the readings to previously performed bacterial counts. 100 μL with approximately 2×10^9 E. faecalis and 100 μL with approximately 2×10^7 P. aeruginosa were inoculated in wells of a 24 Well Multiwell Plate (Greiner Bio-one, Frickenhausen, Germany) containing 1.5 mL BHI-broth. Round glass cover slips (MMG, Germany), diameter 15 mm, mounted in a custom-made stainless steel lid, were suspended in the BHI-broth. Biofilms were grown on glass cover slips to be able to monitor the biofilm growth with a confocal laser scanning microscope (CLSM; Leica SP2-OBS). The biofilms were firmly attached on the glass slips, allowing manipulation of the coverslips without biofilm disruption.\n(§4) Biofilms were grown on the coverslips for 96 h before exposure to the medicaments. […] The broth was refreshed daily. Inoculation of bacteria and the biofilm growth took place at 37° C. in air. After 48 h biofilm growth was confirmed with the aid of CLSM. Three coverslips with attached biofilms were viewed with CLSM after staining with Syto 9 and propidium iodine (PI) (LIVE/DEAD® BacLight™) according to the manufacturer's instruction. Intact, live cells stain fluorescent green, while dead cells with damaged plasma membranes stain fluorescent red.\n(§5) After 96 h the coverslips with the attached bio films were submerged in NaCl-broth or Ca(OH)2-broth for 4 h, 24 h, 48 h, 72 h and 168 h. The negative controls were kept in BHI-broth. Where applicable, the incubation fluids were refreshed daily. Submersion in NaOCl 2% for 10 min served as a positive control."}, "Pseudomonas aeruginosa": {"tested_on": "Pseudomonas aeruginosa", "settings": "for mean log reduction of CFU compared with the controls: P. aeruginosa in dual-species biofilm; for significance of reduction of P. aeruginosa vs negative controls (ANOVA): α=0.05", "quoted_text": "as §1, §2, §3, §4, §5"}, "[1]": {"tested_on": "biofilm of Enterococcus faecalis and Pseudomonas aeruginosa", "assay": "Dual-species biofilm model, whole biofilm (total kill, plaque observation)", "format": "cell-based", "settings": "for visual observation of biofilm plaque on glass coverslips: after the experimental phase, calcification seen after 24 h", "description": "The broth was refreshed daily. […] Later on biofilm growth was confirmed clinically. […] Colonies were very small. […] For imaging a Leica DM-IRB inverted microscope/SP2-AOBS confocal system was used. Images (512*512 pixels) were acquired with a 40×/NA 1.25 HCX PL APO oil objective. The final pixel size was 0.776 μm. […] Image stacks were acquired with a stepsize of 0.3 μm. Excitation/detection of Syto-9 and propidium iodide (PI) was done simultaneously with 488 nm excitation and with 500-550 nm detection for SYTO 9 and 600-690 nm detection for PI respectively."}, "[2]": {"settings": "dual-species biofilms exposed to Ca(OH)2"}}, "note": "Values joined by “and” are separate entries in the source; they are usually repeats but may differ in a detail not shown here. Equal values may be shown once. Read-outs that look alike come from different tables or passages of the source."}
{"smiles": "[Ca+2].[OH-].[OH-]", "note": "[Ca(OH)2, calcium hydroxide]", "values": [{"measurement": "mean log reduction of CFU compared with the controls", "setting": "Enterococcus faecalis; 72 h exposure", "value": 2, "unit": "log CFU"}, {"measurement": "mean log reduction of CFU compared with the controls", "setting": "Enterococcus faecalis; 168 h exposure", "value": 1, "unit": "log CFU"}, {"measurement": "significance of reduction of E. faecalis vs negative controls (ANOVA)", "setting": "Enterococcus faecalis", "value": "not significant"}, {"measurement": "mean log reduction of CFU compared with the controls", "setting": "Pseudomonas aeruginosa; 72 h exposure", "value": 2, "unit": "log CFU"}, {"measurement": "mean log reduction of CFU compared with the controls", "setting": "Pseudomonas aeruginosa; 168 h exposure", "value": 1, "unit": "log CFU"}, {"measurement": "significance of reduction of P. aeruginosa vs negative controls (ANOVA)", "setting": "Pseudomonas aeruginosa", "value": "significantly"}, {"measurement": "effectiveness in the biofilm model (conclusion)", "setting": "[1]", "value": "not effective"}, {"measurement": "visual observation of biofilm plaque on glass coverslips", "setting": "[1]", "value": "all samples showed bio film calcification"}, {"measurement": "bacterial reduction after a week (end of experiment)", "setting": "[1]; [2]", "value": "tenfold"}, {"measurement": "bacterial reduction, initial", "setting": "[1]; [2]", "value": "hundredfold"}]}
{"smiles": "[Cl-].[Na+]", "note": "[NaCl, sodium chloride]", "values": [{"measurement": "mean log reduction of CFU compared with the controls", "setting": "Enterococcus faecalis; 72 h exposure", "value": 6, "unit": "log CFU"}, {"measurement": "mean log reduction of CFU compared with the controls", "setting": "Enterococcus faecalis; 168 h exposure", "value": 8, "unit": "log CFU"}, {"measurement": "mean remaining CFU of E. faecalis", "setting": "Enterococcus faecalis; after 168 h exposure", "value": 40, "unit": "CFU"}, {"measurement": "significance of reduction of E. faecalis vs negative controls (ANOVA)", "setting": "Enterococcus faecalis", "value": "highly significant"}, {"measurement": "mean log reduction of CFU compared with the controls", "setting": "Pseudomonas aeruginosa; 72 h exposure", "value": 6, "unit": "log CFU"}, {"measurement": "mean log reduction of CFU compared with the controls", "setting": "Pseudomonas aeruginosa; 168 h exposure", "value": 8, "unit": "log CFU"}, {"measurement": "P. aeruginosa CFU detected after exposure", "setting": "Pseudomonas aeruginosa; after 168 h exposure, control biofilms 1.5×10^9 CFU", "value": "none could be detected"}, {"measurement": "significance of reduction of P. aeruginosa vs negative controls (ANOVA)", "setting": "Pseudomonas aeruginosa", "value": "highly significant"}, {"measurement": "reductions after a week's exposure", "setting": "[1]; 6.2 M NaCl in broth, dual species biofilm, one value per species, species not assigned", "value": "10^8 and 10^7"}, {"measurement": "visual observation of biofilm plaque on glass coverslips", "setting": "[1]", "value": "no signs of a biofilm plaque"}]}
{"smiles": "OCl", "note": "[NaOCl, sodium hypochlorite]", "values": [{"measurement": "kill", "setting": "[1]; 2% NaOCl, 10 min exposure", "value": 100, "unit": "%"}]}
